In brackets after ≈: the same amount, converted by molar mass.
Assays:
[1] = tested on: enterobacteriaceae (Pseudomonas aeruginosa); assay: in vitro antimicrobial activity compared to pipemidic acid; format: cell-based
Method: (§1) (G. L. Daquet and Y. A. Chabbect, Techniques en bacteriologie (Bacteriological techniques), vol. 3, Flammarion Medecine Sciences, Paris, 1972 and W. B. Hugo and A. D. Rusell, Pharmaceutical Microbiology, Blackwell Scientific Publications, London, (1977)).
(§2) Antibiotic medium no. 1 (seed agar) (Oxoid CM 327)
(§3) Tryptone-soya broth (Oxoid CM 129)
(§4) Ringer's physiological solution 1/4 (oxoid BR 52) Dextrose agar (BBL-11165) 0.1 N NaOH
(§5) Each of the microorganisms is seeded by streaking in tubes of Antibiotic medium No. 1 (seed agar), which are then incubated at 37° C. for 20 hours. Using a culture loop, the cultures are then seeded in tryptone-soyabroth and incubated at 37° C. for 20 hours. The culture obtained is diluted to 1/4 with Ringer's physiological solution, so as to obtain a standardized suspension of 10^7 -10^9 cfu/ml for each organism.
(§6) Starting from a solution of 1,000 μg/ml in 0.1 N NaOH, each product is diluted in Dextrose agar (previously melted and maintained at 50° C.), with successive dilutions so as to obtain the following concentrations: 64--32--16--8--4--2--1--0.5--0.25--0.125 μg of derivative/ml medium.
(§7) For each product, the solution of each concentration is subsequently distributed into Petri dishes 10 cm in diameter, with 10 ml of medium per dish and the same number of dishes as microorganisms to be tested.
(§8) As soon as the medium has cooled, the dishes are seeded with the inoculations using 0.4 ml of inoculation per dish. They are spread with a Driglasky loop and the supernatant is removed. The seeded dishes are incubated at 37° C. for 20 hours.

gram-positive cocci = assay: as above; format: cell-based
Method: as §1, §2, §3, §4, §5, §6, §7, §8

Shigella flexnerii = assay: MIC in vitro; format: cell-based; conditions: Dextrose agar, 37° C., 20 hours
Method: as §1, §2, §3, §4, §5, §6, §7, §8

in vivo = conditions: mouse, ip
Method: To determine this toxicity, C.F.L.P. strain albino mice of both sexes, weighing between 19 and 25 grams, have been used as experimental animals. After an 18 hour fast period with water "ad libitum" the derivatives which are the subjects of the present invention are administered intraperitoneally in 5% suspension in gum arabic. The volume of suspension administered has in all cases been 0.4 ml/20 grams (20 ml/kg), changing the concentration of the suspension according to the dose administered.
One hour after the administration of the derivatives, the animals are supplied with Panlab standard rat-mouse feed. The period of observation of mortality has been 7 days.

[2] = tested on: Enterobacter cloacae CHSP 20; assay: MIC in vitro; format: cell-based; conditions: CHSP20, Dextrose agar, 37° C., 20 hours
Method: (§9) (G. L. Daquet and Y. A. Chabbect, Techniques en bacteriologie (Bacteriological techniques), vol. 3, Flammarion Medecine Sciences, Paris, 1972 and W. B. Hugo and A. D. Rusell, Pharmaceutical Microbiology, Blackwell Scientific Publications, London, (1977)). Antibiotic medium no. 1 (seed agar) (Oxoid CM 327) Tryptone-soya broth (Oxoid CM 129) Ringer's physiological solution 1/4 (oxoid BR 52) Dextrose agar (BBL-11165) 0.1 N NaOH "Enterobacter cloacae" CHSP 20 Each of the microorganisms is seeded by streaking in tubes of Antibiotic medium No. 1 (seed agar), which are then incubated at 37° C. for 20 hours. Using a culture loop, the cultures are then seeded in tryptone-soyabroth and incubated at 37° C. for 20 hours. The culture obtained is diluted to 1/4 with Ringer's physiological solution, so as to obtain a standardized suspension of 10^7 -10^9 cfu/ml for each organism. Starting from a solution of 1,000 μg/ml in 0.1 N NaOH, each product is diluted in Dextrose agar (previously melted and maintained at 50° C.), with successive dilutions so as to obtain the following concentrations: 64--32--16--8--4--2--1--0.5--0.25--0.125 μg of derivative/ml medium. For each product, the solution of each concentration is subsequently distributed into Petri dishes 10 cm in diameter, with 10 ml of medium per dish and the same number of dishes as microorganisms to be tested. As soon as the medium has cooled, the dishes are seeded with the inoculations using 0.4 ml of inoculation per dish. They are spread with a Driglasky loop and the supernatant is removed. The seeded dishes are incubated at 37° C. for 20 hours.

Escherichia coli R-1513 = assay: MIC in vitro; format: cell-based; conditions: R1513, Dextrose agar, 37° C., 20 hours
Method: as §9, with “"Escherichia coli" R-1513” for “"Enterobacter cloacae" CHSP 20”

| Structure (SMILES) | "in vitro" activity compared to pipemidic acid [1] | "in vitro" activity compared to pipemidic acid (gram-positive cocci) | MIC (Shigella flexnerii) [µg/mL] | LD50 at 168 h (in vivo) [mg/kg] | MIC [2] [µg/mL] | MIC (Escherichia coli R-1513) [µg/mL] |
| --- | --- | --- | --- | --- | --- | --- |
| CCn1cc(C(=O)O)c(=O)c2ccc(-n3cccc3)cc21 [Example 1, 7-(1-pyrrolyl)-1-ethyl-1,4-dihydro-4-oxo-3-quinolinecarboxylic acid] | greater than that of pipemidic acid | greater than that of pipemidic acid | 8 (≈ 28.3 µM) | > 800 | 16 (≈ 56.7 µM) | 16 (≈ 56.7 µM) |
| CCn1cc(C(=O)O)c(=O)c2cc(F)c(-n3cccc3)cc21 [Example 2, 6-fluoro-7-(1-pyrrolyl)-1-ethyl-1,4-dihydro-4-oxo-3-quinolinecarboxylic acid] | greater than that of pipemidic acid | greater than that of pipemidic acid | 2 (≈ 6.66 µM) | > 1600 | 1 (≈ 3.33 µM) | 4 (≈ 13.3 µM) |
| CCn1cc(C(=O)O)c(=O)c2ccc(-n3cccc3)nc21 [Example 3, 1-ethyl-1,4-dihydro-4-oxo-7-(1-pyrrolyl)-1,8-naphthyridine-3-carboxylic acid] |  | a greater activity | 16 (≈ 56.5 µM) | 900 | 8 (≈ 28.2 µM) | 16 (≈ 56.5 µM) |
| CCn1cc(C(=O)O)c(=O)c2cc(F)c(-n3cccc3)nc21 [Example 4, 1-ethyl-1,4-dihydro-4-oxo-6-fluoro-7-(1-pyrrolyl)-1,8-naphthyridine-3-carboxylic acid] | greater than that of pipemidic acid | greater than that of pipemidic acid | 2 (≈ 6.64 µM) | > 1000 | 2 (≈ 6.64 µM) | 4 (≈ 13.3 µM) |
| CCn1cc(C(=O)O)c(=O)c2cnc(N3CCNCC3)nc21 [Pipemidic acid, reference compound] |  |  | 4 (≈ 13.2 µM) |  | 8 (≈ 26.4 µM) | 16 (≈ 52.7 µM) |

Source: US4552882A, “7-(1-Pyrrolyl) derivatives of 1-ethyl-1,4-dihydro-4-oxoquinoline-3-carboxylic acids and 1-ethyl-1,4-dihydro-4-oxo-1,8-naphthyridine-3-carboxylic acids and their use as antimicrobial agents” (Provesan, SA, priority 1983, dated 1985)
